Measured values: ChEMBL document CHEMBL1201862, “PubChem BioAssay data set” (2004)
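Following 48 hours of exposure in 96-well plates, responses at five concentrations were used to interpolate endpoints linearly. GI50 = concentration required for 50% inhibition of growth.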 The source made the active and inactive calls. Cut-off read from the data, not from the text of the source: active = GI50 up to about 1.1 µM and inactive = higher.

Key:
Test in all cases: inhibition of tumour cell growth, NCI panel, 48 h
786-0 = system: 786-0
A549 = system: A549
ACHN = system: ACHN
BT-549 = system: BT-549
CAKI-1 = system: CAKI-1
CCRF-CEM = system: CCRF-CEM
COLO 205 = system: COLO 205
DU-145 = system: DU-145
HCC 2998 = system: HCC 2998
HCT-116 = system: HCT-116
HCT-15 = system: HCT-15
HL-60 = system: HL-60
HOP-62 = system: HOP-62
HOP-92 = system: HOP-92
HT-29 = system: HT-29
Hs-578T = system: Hs-578T
IGROV-1 = system: IGROV-1
KM12 = system: KM12
LOX IMVI = system: LOX IMVI
M14 = system: M14
MCF7 = system: MCF7
MDA-MB-231 = system: MDA-MB-231
MDA-MB-435 = system: MDA-MB-435
MDA-N = system: MDA-N
MOLT-4 = system: MOLT-4
NCI-H226 = system: NCI-H226
NCI-H23 = system: NCI-H23
NCI-H460 = system: NCI-H460
NCI-H522 = system: NCI-H522
NCI/ADR-RES = system: NCI/ADR-RES
OVCAR-3 = system: OVCAR-3
OVCAR-4 = system: OVCAR-4
OVCAR-5 = system: OVCAR-5
OVCAR-8 = system: OVCAR-8
PC-3 = system: PC-3
RPMI-8226 = system: RPMI-8226
SF-268 = system: SF-268
SF-295 = system: SF-295
SF-539 = system: SF-539
SK-MEL-28 = system: SK-MEL-28
SK-MEL-2 = system: SK-MEL-2
SK-MEL-5 = system: SK-MEL-5
SK-OV-3 = system: SK-OV-3
SN12C = system: SN12C
SNB-19 = system: SNB-19
SNB-75 = system: SNB-75
SR = system: SR
SW-620 = system: SW-620
T47D = system: T47D
TK-10 = system: TK-10
U-251 = system: U-251
UACC-257 = system: UACC-257
UACC-62 = system: UACC-62
UO-31 = system: UO-31
EKVX = system: EKVX
K562 = system: K562
RXF 393 = system: RXF 393

In the case of CC1OC2OC3C(OCC(O)C3O)OC(=O)[C@]34CCC(C)(C)CC3C3=CCC5[C@@]6(C)C[C@H](O)[C@H](OC7OC(CO)C(O)C(O)C7OC7OC(COC(=O)CC(C)(O)CC(=O)OC1C(O)C2O)C(O)C(O)C7O)[C@@](C)(CO)C6CC[C@@]5(C)[C@]3(C)CC4 (stereo not given in full), the GI50 (786-0) is reported as 1.21 µM (inactive), the GI50 (A549) is reported as 1.32 µM (inactive) and the GI50 (ACHN) is reported as 1.32 µM (inactive). The GI50 (BT-549) was 1.5 µM (inactive), the GI50 (CAKI-1) was 1.45 µM (inactive) and the GI50 (CCRF-CEM) was 1.51 µM (inactive). For the same molecule, the GI50 (COLO 205) was 1.52 µM (inactive), the GI50 (DU-145) was 1.75 µM (inactive) and the GI50 (HCC 2998) was 1.32 µM (inactive). The GI50 (HCT-116) was 1.63 µM (inactive), the GI50 (HCT-15) was 1.53 µM and the GI50 (HL-60) was 1.4 µM (inactive). The GI50 (HOP-62) was 1.44 µM (inactive), the GI50 (HOP-92) was 1.54 µM (inactive) and the GI50 (HT-29) was 1.69 µM (inactive). For the same molecule, the GI50 (Hs-578T) was 1.79 µM (inactive), the GI50 (IGROV-1) was 1.24 µM (inactive) and the GI50 (KM12) was 1.48 µM (inactive). The GI50 (LOX IMVI) was 1.61 µM (inactive), the GI50 (M14) was 1.43 µM (inactive) and the GI50 (MCF7) was 4.46 µM (inactive). The GI50 (MDA-MB-231) was 1.56 µM (inactive), the GI50 (MDA-MB-435) was 1.57 µM (inactive) and the GI50 (MDA-N) was 1.52 µM (inactive). For the same molecule, the GI50 (MOLT-4) was 1.32 µM (inactive), the GI50 (NCI-H226) was 2.48 µM (inactive) and the GI50 (NCI-H23) was 1.64 µM (inactive). For the same molecule, the GI50 (NCI-H460) was 1.8 µM (inactive), the GI50 (NCI-H522) was 1.64 µM (inactive) and the GI50 (NCI/ADR-RES) was 3.01 µM (inactive). For the same molecule, the GI50 (OVCAR-3) was 1.53 µM (inactive), the GI50 (OVCAR-4) was 1.51 µM (inactive) and the GI50 (OVCAR-5) was 1.61 µM (inactive). The GI50 (OVCAR-8) was 1.65 µM (inactive), the GI50 (PC-3) was 1.38 µM (inactive) and the GI50 (RPMI-8226) was 1.66 µM (inactive). The GI50 (SF-268) was 1.54 µM (inactive), the GI50 (SF-295) was 1.78 µM (inactive) and the GI50 (SF-539) was 2.56 µM (inactive). The GI50 (SK-MEL-28) was 1.5 µM (inactive), the GI50 (SK-MEL-2) was 1.59 µM (inactive) and the GI50 (SK-MEL-5) was 1.21 µM (inactive). The GI50 (SK-OV-3) was 1.56 µM (inactive), the GI50 (SN12C) was 1.96 µM (inactive) and the GI50 (SNB-19) was 1.68 µM (inactive). The GI50 (SNB-75) was 1.47 µM (inactive), the GI50 (SR) was 1.6 µM (inactive) and the GI50 (SW-620) was 1.16 µM (inactive). For the same molecule, the GI50 (T47D) was 2.39 µM (inactive), the GI50 (TK-10) was 1.61 µM (inactive) and the GI50 (U-251) was 1.57 µM (inactive). For the same molecule, the GI50 (UACC-257) was 1.43 µM (inactive), the GI50 (UACC-62) was 1.56 µM (inactive) and the GI50 (UO-31) was 1.22 µM (inactive).
In the case of Cc1ccc(/C=C2\Sc3scc(-c4ccccc4)[n+]3C2=O)cc1, the GI50 (786-0) is reported as 22.3 µM (inactive), the GI50 (A549) is reported as 25.1 µM (inactive) and the GI50 (ACHN) is reported as 20.7 µM (inactive). The GI50 (BT-549) was 17.4 µM (inactive), the GI50 (CCRF-CEM) was 13.6 µM (inactive) and the GI50 (COLO 205) was 20.7 µM (inactive). For the same molecule, the GI50 (DU-145) was 24.7 µM (inactive), the GI50 (EKVX) was 19.3 µM (inactive) and the GI50 (HCC 2998) was 27.7 µM (inactive). For the same molecule, the GI50 (HCT-116) was 21.2 µM (inactive), the GI50 (HCT-15) was 19.8 µM and the GI50 (HL-60) was 2.69 µM (inactive). For the same molecule, the GI50 (HOP-62) was 26.2 µM (inactive), the GI50 (HOP-92) was 15.4 µM (inactive) and the GI50 (HT-29) was 24.7 µM (inactive). The GI50 (Hs-578T) was 3.38 µM (inactive), the GI50 (IGROV-1) was 18 µM (inactive) and the GI50 (K562) was 12.3 µM (inactive). The GI50 (KM12) was 18.5 µM (inactive), the GI50 (LOX IMVI) was 20.6 µM (inactive) and the GI50 (M14) was 23.8 µM (inactive). For the same molecule, the GI50 (MCF7) was 37.5 µM (inactive), the GI50 (MDA-MB-231) was 17.5 µM (inactive) and the GI50 (MDA-MB-435) was 9.27 µM (inactive). The GI50 (MDA-N) was 18 µM (inactive), the GI50 (MOLT-4) was 30.1 µM (inactive) and the GI50 (NCI-H226) was 37.3 µM (inactive). For the same molecule, the GI50 (NCI-H23) was 17.5 µM (inactive), the GI50 (NCI-H460) was 16.8 µM (inactive) and the GI50 (NCI-H522) was 3.4 µM (inactive). For the same molecule, the GI50 (NCI/ADR-RES) was 19.5 µM (inactive), the GI50 (OVCAR-3) was 31.4 µM (inactive) and the GI50 (OVCAR-4) was 29 µM (inactive). For the same molecule, the GI50 (OVCAR-5) was 33.4 µM (inactive), the GI50 (OVCAR-8) was 22.4 µM (inactive) and the GI50 (PC-3) was 29 µM (inactive). The GI50 (RPMI-8226) was 8.28 µM (inactive), the GI50 (RXF 393) was 25.9 µM (inactive) and the GI50 (SF-268) was 17.9 µM (inactive). The GI50 (SF-295) was 24.6 µM (inactive), the GI50 (SF-539) was 22.3 µM (inactive) and the GI50 (SK-MEL-28) was 51.5 µM (inactive). The GI50 (SK-MEL-2) was 24.1 µM (inactive), the GI50 (SK-MEL-5) was 21.6 µM (inactive) and the GI50 (SK-OV-3) was 44.2 µM (inactive). The GI50 (SN12C) was 21.4 µM (inactive), the GI50 (SNB-19) was 24.5 µM (inactive) and the GI50 (SNB-75) was 10.8 µM (inactive). The GI50 (SR) was 5 µM (inactive), the GI50 (SW-620) was 20.6 µM (inactive) and the GI50 (T47D) was 48.3 µM (inactive). For the same molecule, the GI50 (TK-10) was 19.8 µM (inactive), the GI50 (U-251) was 16.2 µM (inactive) and the GI50 (UACC-257) was 22.8 µM (inactive). The GI50 (UACC-62) was 16.7 µM (inactive) and the GI50 (UO-31) was 14.5 µM (inactive).
